According to patent publication US20040171616A9, “Polycyclic aryl and heteroaryl substituted 1,4-quinones useful for selective inhibition of the coagulation cascade” (priority 2000, published 2004):

What was measured:
human factor Xa = biological target: T1, human factor Xa (Homo sapiens, UniProt P00742); experiment: Xa Assay; type: biochemical; conditions: percent inhibition of Xa activity; test concentration not given; 60 min
T1 construct: purchased Enzyme Research Laboratories, South Bend Ind
T1 sequence (P00742 235-488 limits assumed): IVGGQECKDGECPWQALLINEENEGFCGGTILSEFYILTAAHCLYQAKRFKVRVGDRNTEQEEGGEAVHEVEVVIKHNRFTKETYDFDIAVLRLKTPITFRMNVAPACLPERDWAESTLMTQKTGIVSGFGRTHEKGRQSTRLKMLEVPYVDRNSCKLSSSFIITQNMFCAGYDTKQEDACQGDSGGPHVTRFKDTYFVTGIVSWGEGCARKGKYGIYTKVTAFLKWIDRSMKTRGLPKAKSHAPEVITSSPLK
T1 sequence (P00742 41-179 limits assumed): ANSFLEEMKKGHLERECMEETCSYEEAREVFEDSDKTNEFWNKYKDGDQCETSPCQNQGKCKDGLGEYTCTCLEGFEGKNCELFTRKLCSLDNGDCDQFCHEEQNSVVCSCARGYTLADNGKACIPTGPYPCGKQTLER

[1] = biological target: T2, recombinant soluble tissue factor and recombinant human factor VIIa (Homo sapiens, UniProt P08709); experiment: TF-VIIa Assay; type: biochemical; conditions: chromogenic substrate, 60 min at room temperature, OD 405 nm
T2 construct: purchased American Diagnostica, Greenwich Conn; (factor VIIa); host or cells: soluble TF made in house in E. coli
T2 sequence (P08709 213-466 limits assumed): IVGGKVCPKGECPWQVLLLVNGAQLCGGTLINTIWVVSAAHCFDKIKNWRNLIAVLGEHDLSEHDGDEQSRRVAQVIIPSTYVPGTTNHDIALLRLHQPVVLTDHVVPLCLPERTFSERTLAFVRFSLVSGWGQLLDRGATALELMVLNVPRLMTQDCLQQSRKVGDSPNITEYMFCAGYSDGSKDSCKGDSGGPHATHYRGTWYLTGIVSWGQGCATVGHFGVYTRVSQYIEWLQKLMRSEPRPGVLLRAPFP
T2 sequence (P08709 61-212 limits assumed): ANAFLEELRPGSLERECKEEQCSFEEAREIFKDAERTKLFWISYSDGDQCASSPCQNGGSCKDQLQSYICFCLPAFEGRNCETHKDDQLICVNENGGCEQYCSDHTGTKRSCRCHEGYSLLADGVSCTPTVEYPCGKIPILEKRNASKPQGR
T2 sequence (P13726 33-251 partner limits assumed): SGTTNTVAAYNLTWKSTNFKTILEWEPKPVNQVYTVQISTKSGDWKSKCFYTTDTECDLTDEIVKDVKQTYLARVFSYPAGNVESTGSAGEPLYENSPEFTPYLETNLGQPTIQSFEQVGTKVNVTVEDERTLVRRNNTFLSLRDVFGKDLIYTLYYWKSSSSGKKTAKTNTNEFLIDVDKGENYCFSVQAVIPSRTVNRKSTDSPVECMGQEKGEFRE
Description: In this assay 100 nM recombinant soluble tissue factor and 2 nM recombinant human factor VIIa are added to a 96-well assay plate containing 0.4 mM of the substrate, N-Methylsulfonyl-D-phe-gly-arg-p-nitroaniline and either inhibitor or buffer (5 mM CaCl2,50 mM Tris-HCl, pH 8.0, 100 mM NaCl, 0.1% BSA). The reaction, in a final volume of 100 ul is measured immediately at 405 nm to determine background absorbance. The plate is incubated at room temperature for 60 min, at which time the rate of hydrolysis of the substrate is measured by monitoring the reaction at 405 nm for the release of p-nitroaniline. Percent inhibition of TF-VIIa activity is calculated from OD405 nm value from the experimental and control sample.
Recombinant soluble TF, consisting of amino acids 1-219 of the mature protein sequence was expressed in E. coli and purified using a Mono Q Sepharose FPLC. Recombinant human VIIa was purchased from American Diagnostica, Greenwich Conn. and chromogenic substrate N-Methylsulfonyl-D-phe-gly-arg-p-nitroaniline was prepared by American Peptide Company, Inc., Sunnyvale, Calif.

## N=C(N)c1ccc(CNC(=O)CC2=C(c3ccccc3)C(=O)C=C(NCCc3ccccc3)C2=O)cc1 [Example 2]
Human factor Xa
  Factor Xa (cell printed as %, in the IC50 column): 13%
[1]
  TF-VIIA IC50: 13 µM
